Tests used:
Assay in all cases: Test C greenhouse herbicide test, pre- and postemergence
Assay type in all cases: in vivo
[1] = tested on: blackgrass (Alopecurus myosuroides)
Procedure, shortened: (§1)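 Two application timings: at sowing into a soil/sand blend, and on 2–18 cm seedlings in peat-vermiculite potting mix. A non-phytotoxic, surfactant-containing solvent carried the compounds. Plants were compared with controls and rated visually on 0–100 after 13–15 d.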

[2] = tested on: ryegrass, Italian (Italian ryegrass, Lolium multiflorum)
Procedure, shortened: as §1

[3] = tested on: johnsongrass (Sorghum halepense)
Procedure, shortened: as §1

[4] = tested on: velvetleaf (Abutilon theophrasti)
Procedure, shortened: as §1

[5] = tested on: oilseed rape (Brassica napus)
Procedure, shortened: as §1

[6] = tested on: crabgrass, large (large crabgrass, Digitaria sanguinalis)
Procedure, shortened: as §1

[7] = tested on: pigweed (Amaranthus retroflexus)
Procedure, shortened: as §1

[8] = tested on: lambsquarters (Chenopodium album)
Procedure, shortened: as §1

[9] = tested on: nutsedge, yellow (yellow nutsedge, Cyperus esculentus)
Procedure, shortened: as §1

[10] = tested on: waterhemp (common waterhemp, Amaranthus rudis)
Procedure, shortened: as §1

[11] = tested on: foxtail, giant (giant foxtail, Setaria faberii)
Procedure, shortened: as §1

[12] = tested on: ragweed (common ragweed, Ambrosia elatior)
Procedure, shortened: as §1

corn (Zea mays) = tested on: corn (Zea mays)
Procedure, shortened: as §1

[13] = tested on: galium (catchweed bedstraw, Galium aparine)
Procedure, shortened: as §1

[14] = tested on: morningglory (Ipomoea coccinea)
Procedure, shortened: as §1

[15] = tested on: barnyardgrass (Echinochloa crus-galli)
Procedure, shortened: as §1

[16] = Postemergence, 31 g ai/ha, scale 0 to 100 (0 no effect, 100 complete control)
[17] = Postemergence, 125 g ai/ha, scale 0 to 100, 0 is no effect, 100 is complete control
[18] = Postemergence, 250 g ai/ha, scale 0 to 100, 0 no effect, 100 complete control, 13 to 15 d
[19] = Preemergence, 31 g ai/ha, scale 0 to 100, 0 is no effect, 100 is complete control
[20] = Preemergence, 62 g ai/ha, scale 0 to 100, 0 is no effect, 100 is complete control
[21] = Preemergence, 125 g ai/ha, scale 0 to 100, 0 is no effect, 100 is complete control
[22] = Preemergence, 250 g ai/ha, scale 0 to 100 (0 no effect, 100 complete control)
[23] = postemergence, 62 g ai/ha, scale 0 to 100, 0 no effect, 100 complete control

Compound: Cc1ccc2ccccc2c1-c1c(O)c(Cl)nn(C)c1=O [Compound 125]
- Plant response rating, Blackgrass [1, 16]: 20
- Plant response rating, Blackgrass [1, 17]: 60
- Plant response rating, Blackgrass [1, 18]: 80
- Plant response rating, Blackgrass [1, 19]: 50
- Plant response rating, Blackgrass [1, 20]: 55
- Plant response rating, Blackgrass [1, 21]: 55
- Blackgrass plant response rating [1, 22]: 90
- Blackgrass plant response rating [1, 23]: 45
- Plant response rating, Ryegrass, Italian [2, 16]: 85
- Plant response rating, Ryegrass, Italian [2, 17]: 95
- Plant response rating, Ryegrass, Italian [2, 18]: 95
- Plant response rating, Ryegrass, Italian [2, 19]: 85
- Plant response rating, Ryegrass, Italian [2, 20]: 95
- Plant response rating, Ryegrass, Italian [2, 21]: 95
- Ryegrass, Italian plant response rating [2, 22]: 95
- Plant response rating, Johnsongrass [3, 16]: 5
- Plant response rating, Johnsongrass [3, 17]: 20
- Plant response rating, Johnsongrass [3, 18]: 20
- Plant response rating, Johnsongrass [3, 19]: 40
- Plant response rating, Johnsongrass [3, 20]: 55
- Plant response rating, Johnsongrass [3, 21]: 60
- Johnsongrass plant response rating [3, 22]: 70
- Plant response rating, Velvetleaf [4, 16]: 85
- Plant response rating, Velvetleaf [4, 17]: 95
- Plant response rating, Velvetleaf [4, 18]: 98
- Plant response rating, Velvetleaf [4, 19]: 95
- Plant response rating, Velvetleaf [4, 20]: 100
- Plant response rating, Velvetleaf [4, 21]: 100
- Velvetleaf plant response rating [4, 22]: 100
- Plant response rating, Oilseed Rape [5, 16]: 0
- Plant response rating, Oilseed Rape [5, 17]: 5
- Plant response rating, Oilseed Rape [5, 18]: 10
- Plant response rating, Oilseed Rape [5, 19]: 85
- Plant response rating, Oilseed Rape [5, 20]: 0
- Plant response rating, Oilseed Rape [5, 21]: 85
- Oilseed Rape plant response rating [5, 22]: 100
- Plant response rating, Crabgrass, Large [6, 16]: 25
- Plant response rating, Crabgrass, Large [6, 17]: 40
- Plant response rating, Crabgrass, Large [6, 18]: 60
- Plant response rating, Crabgrass, Large [6, 19]: 40
- Plant response rating, Crabgrass, Large [6, 20]: 45
- Plant response rating, Crabgrass, Large [6, 21]: 75
- Crabgrass, Large plant response rating [6, 22]: 98
- Crabgrass, Large plant response rating [6, 23]: 35
- Plant response rating, Pigweed [7, 16]: 95
- Plant response rating, Pigweed [7, 17]: 98
- Plant response rating, Pigweed [7, 18]: 98
- Plant response rating, Pigweed [7, 19]: 100
- Plant response rating, Pigweed [7, 20]: 100
- Plant response rating, Pigweed [7, 21]: 100
- Pigweed plant response rating [7, 22]: 100
- Plant response rating, Lambsquarters [8, 16]: 90
- Plant response rating, Lambsquarters [8, 17]: 98
- Plant response rating, Lambsquarters [8, 18]: 100
- Plant response rating, Lambsquarters [8, 19]: 90
- Plant response rating, Lambsquarters [8, 20]: 100
- Plant response rating, Lambsquarters [8, 21]: 100
- Lambsquarters plant response rating [8, 22]: 100
- Plant response rating, Nutsedge, Yellow [9, 16]: 35
- Plant response rating, Nutsedge, Yellow [9, 17]: 85
- Plant response rating, Nutsedge, Yellow [9, 18]: 90
- Plant response rating, Nutsedge, Yellow [9, 19]: 65
- Plant response rating, Nutsedge, Yellow [9, 20]: 95
- Plant response rating, Nutsedge, Yellow [9, 21]: 95
- Nutsedge, Yellow plant response rating [9, 22]: 90
- Plant response rating, Waterhemp [10, 16]: 85
- Plant response rating, Waterhemp [10, 17]: 98
- Plant response rating, Waterhemp [10, 18]: 100
- Plant response rating, Waterhemp [10, 19]: 98
- Plant response rating, Waterhemp [10, 20]: 100
- Plant response rating, Waterhemp [10, 21]: 100
- Waterhemp plant response rating [10, 22]: 100
- Plant response rating, Foxtail, Giant [11, 16]: 70
- Plant response rating, Foxtail, Giant [11, 17]: 95
- Plant response rating, Foxtail, Giant [11, 18]: 98
- Plant response rating, Foxtail, Giant [11, 19]: 95
- Plant response rating, Foxtail, Giant [11, 20]: 100
- Plant response rating, Foxtail, Giant [11, 21]: 98
- Foxtail, Giant plant response rating [11, 22]: 100
- Plant response rating, Ragweed [12, 16]: 95
- Plant response rating, Ragweed [12, 17]: 98
- Plant response rating, Ragweed [12, 18]: 98
- Plant response rating, Ragweed [12, 19]: 95
- Plant response rating, Ragweed [12, 20]: 100
- Plant response rating, Ragweed [12, 21]: 98
- Ragweed plant response rating [12, 22]: 100
- Plant response rating, Corn (corn (Zea mays); [16]): 5
- Plant response rating, Corn (corn (Zea mays); [17]): 5
- Plant response rating, Corn (corn (Zea mays); [18]): 5
- Plant response rating, Corn (corn (Zea mays); [19]): 0
- Plant response rating, Corn (corn (Zea mays); [20]): 0
- Plant response rating, Corn (corn (Zea mays); [21]): 20
- Corn plant response rating (corn (Zea mays); [22]): 55
- Corn plant response rating (corn (Zea mays); [23]): 0
- Plant response rating, Galium [13, 16]: 95
- Plant response rating, Galium [13, 17]: 95
- Plant response rating, Galium [13, 18]: 95
- Plant response rating, Galium [13, 19]: 100
- Plant response rating, Galium [13, 20]: 100
- Plant response rating, Galium [13, 21]: 100
- Galium plant response rating [13, 22]: 100
- Plant response rating, Morningglory [14, 16]: 95
- Plant response rating, Morningglory [14, 17]: 100
- Plant response rating, Morningglory [14, 18]: 100
- Plant response rating, Morningglory [14, 19]: 90
- Plant response rating, Morningglory [14, 20]: 95
- Plant response rating, Morningglory [14, 21]: 95
- Morningglory plant response rating [14, 22]: 98
- Plant response rating, Barnyardgrass [15, 16]: 35
- Plant response rating, Barnyardgrass [15, 17]: 80
- Plant response rating, Barnyardgrass [15, 18]: 70
- Plant response rating, Barnyardgrass [15, 19]: 55
- Plant response rating, Barnyardgrass [15, 20]: 70
- Plant response rating, Barnyardgrass [15, 21]: 90
- Barnyardgrass plant response rating [15, 22]: 98
- Barnyardgrass plant response rating [15, 23]: 40
